# Data as given in US9540389B2, “Antimicrobial potentiators” (priority 2013, dated 2017).
# Columns and labels:
# [1] = tested on: diverse panel of E. coli strains; experiment: Cumulative MICs (MIC50, MIC90) for levofloxacin and piperacillin ± 25 μM MBX2319; format: cell-based, Escherichia coli; settings: E. coli strain panel
# From the text: • Strains and Reagents. The following strains were obtained from the Keio collection (Baba, et al.: Construction of Escherichia coli K-12 in-frame, single-gene knockout mutants: the Keio collection. In Mol Syst Biol, vol. 2, pp. 2006 0008, (2006)): JW0451 (ΔacrB::kan), JW5503 (ΔtolC::kan), JW3234 (ΔacrF::kan), JW2661 (ΔemrB::kan), JW0863 (ΔmacB::kan). The deletion mutations in each of these strains were transferred to AB1157 using P1 phage transduction (see Table 1). The construction of the E. coli cell-based reporter strain (SOS-XXX) that was used for high throughput screening is described in detail in the supplementary information. […] Irgasan was a generous gift from Ciba Speciality Chemicals, Inc. (High Point, N.C.). Hoechst 33342 (H33342) was purchased from Molecular Probes (Eugene, Oreg.). […] Luria Broth (Miller) and agar were purchased as prepared dehydrated media from Becton Dickenson (Franklin Lakes, N.J.). The compound libraries used in high-throughput screens were purchased from Chembridge (San Diego, Calif.), ChemDiv (San Diego, Calif.), and TimTec (Newark, Del.). MBX2319 was synthesized by Microbiotix, Inc. • Antibacterial Activity Assays. The minimal inhibitory concentration (MIC) of antibacterial agents and biocides were determined using the microbroth dilution method essentially as described in the CLSI protocol M7-A7 (CLSI: Method for dilution antimicrobial susceptibility testing for bacteria that grow aerobically; Approved standard-document M7-A7. In Clinical and Laboratory Standards Institute document M7-A7, Clinical and Laboratory Standards Institute, Wayne, Pa., (2006)), with the following exceptions. LB media was used instead of MHB. […] The final concentration of DMSO in each assay was 2%. […] MIC assays were performed in triplicate and the geometric mean was calculated. Checkerboard MIC assays using an EPI and an antibacterial agent were performed essentially as described (Pillai, et al.: Antimicrobial Combinations. In Antibiotics in Laboratory Medicine, ed. by V. Lorian, pp. 365-440, Lippincott Williams & Wilkins, Philadelphia, Pa., (2005)), with the same modifications used for the MIC assays described above. • Time-Kill Assays. Killing curve assays were performed essentially as described (Pillai, et al.: Antimicrobial Combinations. In Antibiotics in Laboratory Medicine, ed. by V. Lorian, pp. 365-440, Lippincott Williams & Wilkins, Philadelphia, Pa., (2005)). […] Viability was monitored over 2-4 hours by making serial dilutions in saline and spotting 5 μl of each dilution onto the surface of an LB agar plate in triplicate. Colonies were counted after the plates were incubated at 37° C. for 16-18 hr, colony forming units (CFU) per ml were calculated, and the average and standard deviation for the three replicates was determined. […]
# [2] = tested on: Escherichia coli AB1157 ΔacrF; experiment: Checkerboard MIC assay (antibacterial agent + MBX2319); format: cell-based; settings: Escherichia coli, read-out: MIC (μM) MBX2319
# From the text: (§1) • Strains and Reagents. The following strains were obtained from the Keio collection (Baba, et al.: Construction of Escherichia coli K-12 in-frame, single-gene knockout mutants: the Keio collection. In Mol Syst Biol, vol. 2, pp. 2006 0008, (2006)): JW0451 (ΔacrB::kan), JW5503 (ΔtolC::kan), JW3234 (ΔacrF::kan), JW2661 (ΔemrB::kan), JW0863 (ΔmacB::kan). The deletion mutations in each of these strains were transferred to AB1157 using P1 phage transduction (see Table 1). The construction of the E. coli cell-based reporter strain (SOS-XXX) that was used for high throughput screening is described in detail in the supplementary information. […] Irgasan was a generous gift from Ciba Speciality Chemicals, Inc. (High Point, N.C.). Hoechst 33342 (H33342) was purchased from Molecular Probes (Eugene, Oreg.). […] Luria Broth (Miller) and agar were purchased as prepared dehydrated media from Becton Dickenson (Franklin Lakes, N.J.). The compound libraries used in high-throughput screens were purchased from Chembridge (San Diego, Calif.), ChemDiv (San Diego, Calif.), and TimTec (Newark, Del.). MBX2319 was synthesized by Microbiotix, Inc. • Antibacterial Activity Assays. The minimal inhibitory concentration (MIC) of antibacterial agents and biocides were determined using the microbroth dilution method essentially as described in the CLSI protocol M7-A7 (CLSI: Method for dilution antimicrobial susceptibility testing for bacteria that grow aerobically; Approved standard-document M7-A7. In Clinical and Laboratory Standards Institute document M7-A7, Clinical and Laboratory Standards Institute, Wayne, Pa., (2006)), with the following exceptions. LB media was used instead of MHB. […] The final concentration of DMSO in each assay was 2%. […] MIC assays were performed in triplicate and the geometric mean was calculated. Checkerboard MIC assays using an EPI and an antibacterial agent were performed essentially as described (Pillai, et al.: Antimicrobial Combinations. In Antibiotics in Laboratory Medicine, ed. by V. Lorian, pp. 365-440, Lippincott Williams & Wilkins, Philadelphia, Pa., (2005)), with the same modifications used for the MIC assays described above. • Time-Kill Assays. Killing curve assays were performed essentially as described (Pillai, et al.: Antimicrobial Combinations. In Antibiotics in Laboratory Medicine, ed. by V. Lorian, pp. 365-440, Lippincott Williams & Wilkins, Philadelphia, Pa., (2005)). Exponential bacterial cultures grown in LB were diluted to a cell density of ˜1×10^7 in LB followed by addition of CIP and/or an EPI. Viability was monitored over 2-4 hours by making serial dilutions in saline and spotting 5 μl of each dilution onto the surface of an LB agar plate in triplicate. Colonies were counted after the plates were incubated at 37° C. for 16-18 hr, colony forming units (CFU) per ml were calculated, and the average and standard deviation for the three replicates was determined. For treatments that decreased CFU/ml below the limit of detection for the spot plating method, the 100 μl samples were diluted into 5 ml LB top agar, were poured onto LB agar plates, and incubated for 18 hr at 37° C. To calculate the fraction of the control for each sample, the average CFU/ml values for treated samples were divided by those from the same sample at 0 h (time=0). Each experiment was repeated at least three times, and a representative experiment is shown. • H33342 Accumulation Assay. The rate of accumulation of the fluorescent dye Hoechst 33342 (H33342), which is a substrate of a wide variety of bacterial efflux pumps (van den Berg van Saparoea, et al., Biochemistry, vol. 44, pp. 16931-16938, (2005)), can be used to estimate the activity of the major efflux pumps in E. coli and many other bacterial species. The H33342 accumulation assay was used to evaluate the effect of EPIs on the activity of the AcrAB-TolC efflux pump in several bacterial species essentially as described (Coldham, et al., J Antimicrob Chemother, vol. 65, pp. 1655-1663, (2010)). […]
# [3] = tested on: Escherichia coli AB1157 ΔemrB; experiment: as above; format: cell-based; settings: EmrB-defective mutant; data not shown
# From the text: as §1
# [4] = tested on: Escherichia coli AB1157 ΔmacB; experiment: as above; format: cell-based; settings: MacB-defective mutant; data not shown
# From the text: as §1
# [5] = tested on: Escherichia coli AB1157 ΔtolC; experiment: as above; format: cell-based; settings: Escherichia coli, read-out: MIC (μM) MBX2319
# From the text: as §1
# [6] = tested on: Escherichia coli AB1157 ΔacrB; experiment: as above; format: cell-based; settings: Escherichia coli, read-out: MIC (μM) MBX2319
# From the text: as §1
# [7] = tested on: Escherichia coli AB1157 (WT); experiment: as above; format: cell-based
# From the text: as §1
# [8] = tested on: Escherichia coli 285 (AB1157, CIPR, overexpresses efflux); experiment: microbe, parasite or virus in culture; format: cell-based
# From the text: as §1
# [9] = tested on: Escherichia coli 287 (AB1157, CIPR, overexpresses efflux); experiment: microbe, parasite or virus in culture; format: cell-based
# From the text: as §1
# [10] = target: AcrAB-TolC efflux pump (Escherichia coli, UniProt P31224); experiment: H33342 accumulation assay; format: cell-based; design: endogenous in cells; host or cells: E. coli 331 (fluoroquinolone-resistant); settings: E. coli 331 (CIPR); 25 μM
# Chain of AcrAB-TolC efflux pump (P31224 whole entry): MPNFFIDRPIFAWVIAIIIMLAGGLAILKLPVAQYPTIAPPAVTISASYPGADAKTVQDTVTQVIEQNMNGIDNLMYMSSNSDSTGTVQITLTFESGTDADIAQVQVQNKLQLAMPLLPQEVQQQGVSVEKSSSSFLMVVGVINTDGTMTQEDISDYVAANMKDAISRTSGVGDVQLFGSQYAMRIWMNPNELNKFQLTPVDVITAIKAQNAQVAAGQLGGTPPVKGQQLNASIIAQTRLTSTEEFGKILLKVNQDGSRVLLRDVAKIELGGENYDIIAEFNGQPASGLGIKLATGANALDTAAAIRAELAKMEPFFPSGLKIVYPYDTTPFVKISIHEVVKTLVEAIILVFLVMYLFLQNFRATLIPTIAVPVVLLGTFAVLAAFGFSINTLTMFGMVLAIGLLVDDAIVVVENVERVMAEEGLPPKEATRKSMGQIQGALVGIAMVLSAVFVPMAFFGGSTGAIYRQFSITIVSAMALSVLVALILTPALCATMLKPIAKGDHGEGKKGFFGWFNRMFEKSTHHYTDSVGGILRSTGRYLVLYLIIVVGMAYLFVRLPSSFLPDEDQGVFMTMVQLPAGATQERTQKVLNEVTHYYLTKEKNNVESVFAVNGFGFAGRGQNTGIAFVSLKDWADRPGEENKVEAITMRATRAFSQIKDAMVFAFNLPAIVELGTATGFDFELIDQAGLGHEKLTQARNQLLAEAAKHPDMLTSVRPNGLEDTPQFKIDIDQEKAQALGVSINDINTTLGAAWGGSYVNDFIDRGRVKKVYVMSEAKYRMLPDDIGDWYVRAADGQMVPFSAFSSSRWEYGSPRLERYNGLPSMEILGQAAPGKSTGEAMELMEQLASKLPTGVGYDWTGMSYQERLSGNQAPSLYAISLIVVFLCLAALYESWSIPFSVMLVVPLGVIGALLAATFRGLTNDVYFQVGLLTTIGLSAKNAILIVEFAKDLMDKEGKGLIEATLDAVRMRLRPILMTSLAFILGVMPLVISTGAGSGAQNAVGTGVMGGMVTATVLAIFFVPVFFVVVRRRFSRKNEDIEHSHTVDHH
# Chain of AcrAB-TolC efflux pump (P0AE06 25-397, further chain): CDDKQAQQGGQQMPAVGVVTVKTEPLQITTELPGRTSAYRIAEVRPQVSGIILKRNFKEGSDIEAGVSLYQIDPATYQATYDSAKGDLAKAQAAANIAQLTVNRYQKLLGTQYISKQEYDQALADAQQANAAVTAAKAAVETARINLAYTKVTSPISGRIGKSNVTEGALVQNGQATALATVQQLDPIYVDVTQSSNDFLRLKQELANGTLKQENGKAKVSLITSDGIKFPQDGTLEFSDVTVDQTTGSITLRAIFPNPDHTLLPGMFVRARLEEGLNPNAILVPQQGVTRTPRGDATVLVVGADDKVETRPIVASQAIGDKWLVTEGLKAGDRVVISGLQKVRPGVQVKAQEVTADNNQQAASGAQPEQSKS
# Chain of AcrAB-TolC efflux pump (P02930 23-493, further chain): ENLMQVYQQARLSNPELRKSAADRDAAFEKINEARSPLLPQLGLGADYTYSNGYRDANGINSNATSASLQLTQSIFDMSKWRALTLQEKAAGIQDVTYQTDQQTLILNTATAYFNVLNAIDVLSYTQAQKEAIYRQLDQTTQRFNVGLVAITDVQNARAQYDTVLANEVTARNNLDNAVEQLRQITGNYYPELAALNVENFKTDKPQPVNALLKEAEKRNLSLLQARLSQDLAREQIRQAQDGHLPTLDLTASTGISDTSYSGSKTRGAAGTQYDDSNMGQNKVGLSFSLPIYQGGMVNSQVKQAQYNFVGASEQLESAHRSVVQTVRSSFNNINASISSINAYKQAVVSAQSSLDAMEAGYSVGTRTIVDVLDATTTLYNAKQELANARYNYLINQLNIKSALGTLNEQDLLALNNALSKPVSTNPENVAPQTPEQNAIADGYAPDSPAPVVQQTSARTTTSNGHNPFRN
# [11] = Escherichia coli, read-out: MIC (μM) MBX2319
smiles,measurement,setting,value
CC1(C)Cc2c(C#N)c(SCCc3ccccc3)nc(N3CCOCC3)c2CO1 [MBX2319],decrease of MIC50 for LEV,[1],four fold
same,decrease of MIC90 for LEV,[1],four fold
same,effect on MIC50 for PIP,[1],did not have a significant effect
same,effect on MIC90 for PIP,[1],did not have a significant effect
same,MIC,[2],≥ 100 µM
same,MIC shifts by MBX2319,[3],MIC shifts similar to WT
same,MIC shifts by MBX2319,[4],MIC shifts similar to WT
same,MIC,[5],≥ 100 µM
same,MIC,[6],≥ 100 µM
same,MIC,"[7]; Escherichia coli, MBX2319 alone, strain WT, read-out: MIC (μM) MBX2319",≥ 100 µM
same,decrease of the MIC of CIP by MBX2319,"[7]; checkerboard, E. coli AB1157, ciprofloxacin",2 fold
same,decrease of the MIC of LEV by MBX2319,"[7]; checkerboard, E. coli AB1157, levofloxacin",4 fold
same,decrease of the MIC of PIP by MBX2319,"[7]; checkerboard, E. coli AB1157, piperacillin",8 fold
same,"potentiation of the antibacterial activity of CIP, LEV, and PIP",[8]; E. coli strain 285,4-8 fold
same,MIC,[8]; [11],≥ 100 µM
same,"potentiation of the antibacterial activity of CIP, LEV, and PIP",[9]; E. coli strain 287,4-8 fold
same,MIC,[9]; [11],≥ 100 µM
same,H33342 accumulation,[10],weak activity
